The nature of the data set: clinical. To be noted: for Tmax / half-life: Mean; for Kel of Hydrocodone bitartrate, Mean: oral; for half-life: t1/2 of Hydrocodone bitartrate. The protocol:
A randomized, open-label, balanced, two-treatment, two-period, two sequence, single-dose, two-way crossover oral food effect study was conducted comparing administration of rapidly dissolving pharmaceutical composition tablets including 5 mg hydrocodone bitartrate and 400 mg guaifenesin per tablet to healthy subjects under fed and fasting conditions. The objective of this study was to evaluate the effect of food (high fat, high calorie breakfast) on the rate and extent of absorption of a single oral dose of the rapidly dissolving pharmaceutical composition including 5 mg hydrocodone bitartrate and 400 mg guaifenesin.
Healthy adult participants were randomized into Treatment A or Treatment B during two study periods (Period 1 and Period 2). Participants received one tablet of the rapidly dissolving pharmaceutical composition (including 5 mg hydrocodone bitartrate and 400 mg guaifenesin per tablet) in each study period with a seven-day (washout) interval between study periods. Participants randomized to Treatment A consumed a high fat, high calorie breakfast (1000 kcal) 30 minutes prior to dosing. Participants randomized to Treatment B fasted overnight and at the time of dosing. Participants were housed at the investigative site not less than 10.5 hours pre-dose until 24 hours post-dose in each period.
Twenty-one blood samples were collected from each subject during each study period. The venous blood samples (9 mL each) were drawn at pre-dose [(0.00) within 1.00 hour prior to dosing] and at 0.16, 0.33, 0.50, 0.66, 0.83, 1.00, 1.25, 1.50, 2.00, 3.00, 4.00, 5.00, 6.00, 7.00, 8.00, 10.00, 12.00, 16.00, 20.00 and 24.00 hours post-dose. After the collection of blood samples from all the subjects at each time point, samples were centrifuged at 4000 RPM for 10 minutes at 5° C. All plasma samples were then transferred into three polypropylene tubes. The plasma samples were stored at −20±10° C. for a maximum period of 12.0 hours.
Pharmacokinetic parameters were measured for fed and fasting conditions of subjects for both hydrocodone bitartrate and guaifenesin. Plasma samples were assayed for hydrocodone and guaifenesin using an API 4000® LC-MS/MS System, commercially available from AB Sciex LP, Concord, Ontario, Canada. During analysis, standard and quality control samples were distributed throughout each batch of study samples analyzed. No access to the randomization schedule was available until all of the analysis was completed. All the values below the limit of quantification (LOQ) were set to “zero” for all pharmacokinetic and statistical calculations. Any missing sample was reported as “M”. Incurred sample reanalysis was performed as per the current version of ICON SOP BC06, “Incurred Sample Reanalysis Procedures”.
The pharmacokinetic parameters for hydrocodone and guaifenesin in plasma were computed using SAS™ v9.3 software, commercially available from SAS Institute, Inc., Cary, N.C., USA.
The plasma pharmacokinetic parameters were determined for Cmax, Tmax, AUC0→t, and AUC0→∞. The Cmax and Tmax values were directly determined from the plasma concentration versus time curves. The AUC0→t was calculated by the linear trapezoidal rule. The AUC0→∞ was estimated by summing the area from AUC0→t and […]. The half life, t1/2, was calculated using the formula t1/2=ln 2/Kel, wherein Kel is the slope of the terminal portion of the plasma concentration versus time curve, obtained by linear regression. Natural Logarithmic transformation was done before data analysis for Cmax, AUC0→t, and AUC0→∞. Tmax, t1/2, and Kel were analyzed without transformation.
A paired t-test was used to assess effects between the two arms of the study. Intra-subject variability in terms of the overall percentage coefficient of variation (% CV) were also evaluated for each PK parameter. […] All values below the limit of quantification (LOQ) were set to “zero” for all pharmacokinetic and statistical calculations.

The mark [1] stands for this setting: fed:fasting, ln-transformed data.

The structures appear in SMILES notation.

With `COc1ccccc1OCC(O)CO` (centres unmarked) [Guaifenesin, guaifenesin], the “t1/2 of Guaifenesin, Mean” value (human, in vivo, po) is 1.05 h. The Tmax (human, in vivo, po, Tmax of Guaifenesin) came out at 0.64 h.
Turning to `COc1ccc2c3c1O[C@H]1C(=O)CC[C@H]4[C@@H](C2)N(C)CC[C@]314.O=C(O)C(O)C(O)C(=O)O` [Hydrocodone bitartrate, hydrocodone bitartrate], where the note is “Fasting Condition (Treatment B), one tablet 5 mg hydrocodone bitartrate/400 mg guaifenesin”, the “Kel of Hydrocodone bitartrate, Mean” value amounted to 0.14 h⁻¹. Moreover, under “Fed Condition (Treatment A), one tablet 5 mg hydrocodone bitartrate/400 mg guaifenesin”, the “Kel of Hydrocodone bitartrate, Mean” value amounted to 0.14 h⁻¹. Also, where the note is “fed:fasting”, the “Ratio Between Treatment A: Treatment B, Kel of Hydrocodone Bitartrate, Mean” value is recorded as 0.98; the “Ratio Between Treatment A: Treatment B, Tmax of Hydrocodone Bitartrate, Mean” value is recorded as 1.51; the “Ratio Between Treatment A: Treatment B, t1/2 of Hydrocodone Bitartrate, Mean” value came to 1.11. Under setting [1], the “Ratio Between Treatment A: Treatment B, *AUC0→t of Hydrocodone Bitartrate, Mean” value is 1.02; the “Ratio Between Treatment A: Treatment B, *AUC0→∞ of Hydrocodone Bitartrate, Mean” value was determined as 1.02; the “Ratio Between Treatment A: Treatment B, *Cmax of Hydrocodone Bitartrate, Mean” value turned out to be 1.03. In addition, under “human, in vivo, po, Tmax of Hydrocodone bitartrate, Fasting Condition (Treatment B), one tablet 5 mg hydrocodone bitartrate/400 mg guaifenesin”, the Tmax is 1.61 h. Where the note is “human, in vivo, po, Tmax of Hydrocodone bitartrate, Fed Condition (Treatment A), one tablet 5 mg hydrocodone bitartrate/400 mg guaifenesin”, the Tmax worked out at 2.08 h. In addition, where the note is “human, in vivo, po, Fasting Condition (Treatment B), one tablet 5 mg hydrocodone bitartrate/400 mg guaifenesin”, the half-life (usually the time in which the quantity being followed falls by half) is 297 min. In addition, the half-life (human, in vivo, po, Fed Condition (Treatment A), one tablet 5 mg hydrocodone bitartrate/400 mg guaifenesin) is 317 min.

The values are drawn from patent US11202766B1, “Pharmaceutical compositions including hydrocodone bitartrate and guaifenesin” (priority 2019, dated 2021).
